Measurements reported in patent US20100331363A1, “TREATMENT OF MITOCHONDRIAL DISORDERS USING A FARNESYL TRANSFERASE INHIBITOR” (Link Medicine Corporation, priority 2008, published 2010).
Entries after “also recorded” stand apart in the source; their conditions may differ. Like-named read-outs stand apart in the source and are kept apart here.

Legend:
[1] = Pharmacokinetics of LNK-754-TS in mice, oral; format: in vivo, mouse; conditions: for MRT inf: read-out: MRT(0-∞)
Text: In the experimental data represented in Table 2A, a different method of drug delivery is used (oral) than in the experiment represented in FIG. 3. The best way to compare the relative coverage of the two delivery methods (oral and continuous infusion) is by comparing area-under-the-curve (AUC) values. We can compare the calculated AUC values for the continuous infusion oncology study presented in FIG. 3 and the AUC values associated with the synuclein model doses in the table. […] The AUCs of orally dosed LNK-754-TS at 0.9 mg/kg and at 0.09 mg/kg QD are 34.6 and […], respectively.
The pharmacokinetic profiles of LNK-754-TS and Zarnestra® were analyzed using methods known in the art. The results are shown in FIGS. 13-14 and the tables below.

TAU = test: TAU441 transgenic mice, TAU immunoreactivity (AT180, HT7) in amygdala; format: in vivo, mouse; conditions: 0.09 mg/kg once every 24 hours, three months, vs vehicle
Procedure: Animals and treatments: Male and female human WT alpha-synuclein over-expressing transgenic mice^32 at 6 months of age were given vehicle (10% beta-cyclodextrin) or LNK-754-TS (0.09, 0.9 and 9 mg/kg) per oral gavage twice daily for 3 months or animals at 7 months of age were given vehicle (2.5% beta-cyclodextrin) or LNK-754-TS (2 mg/kg) once every three days for 3 months. […]
Immunohistochemistry and quantification of stained cells: For evaluation of α-synuclein immunoreactivity (IR), 5 sagittal cryo-cut sections (10 μm slice thickness) from five different layers were used for counting of IR cells in the cortex and hippocampus. […] IR positive cells were quantified using specialized image analysis software (Image Pro Plus, version 4.5.1.29). […] Images were evaluated with ImageProPlus (version 6.2) image analysis software. […] Primary antibodies were detected by the ABC method.
This study was designed to evaluate the effects of a treatment with LNK-754-TS dosed at 0.09 mg per kg on behavior, TAU and TAU-pT231 levels, and brain morphology of TAU441 Tg mice. Histological evaluations were performed to quantitatively evaluate TAU pathology. TAU depositions were determined using the monoclonal TAU-antibodies AT180 and HT7. […] Afterwards images were evaluated with ImageProPlus (version 6.2) image analysis software (FIG. 10A).

LC3 mRNA = LC3 mRNA (qPCR) in SH-SY5Y cells; format: cell-based, human
Procedure: Cell culture and immunocytochemistry: SH-SY5Y cells were grown in DMEM medium supplemented with 10% FBS and 1% pen/strep at 37° C. and 5% CO2. Cells were differentiated with 10 μM retinoic acid for 48 hr, then treated with the either rapamycin (100 nM or 1 μM) or with 100 nM of either LNK-754-TS or Tipifarnib for 48-72 hr. Cells were then fixed with 4% paraformaldehyde and stained for LC3 (Novus biological, NB100-2331, dilution 1:800) followed by secondary Alexa-564 anti-Rabbit (A-11011).
Quantitative real-time PCR: Gene expression profiles were done by qPCR on series of known autophagy genes. RNA was extracted with Tri-reagent (Sigma), and cDNAs generated using iScript (Biorad). qPCR analysis was carried out in a 96 well plate using an iCycler (BioRad, Hercules, Calif.), and iQ SYBR Green Supermix (Biorad) according to the manufacturer's specifications.
Such increases in LC3 mRNA levels are associated in the literature with stimulation of macroautophagy. This supports the hypothesis that at doses as low as 1 nM in this in vitro system there is stimulation of autophagy in these cells.
Autophagy was measured in a neuroblastoma cell culture system by three distinct approaches: quantitation of autophagy-related mRNA's, immunofluorescence microscopy of autophagosomes, and biochemical detection of the microtubule-associated protein 1 light chain 3 (LC3) a key protein that is required for autophagosome formation. Differentiated human neuroblastoma cells (SH-SY5Y) were treated for 72 hr with LNK-754-TS (0.01-100 nM), Zarnestra® (also referred to herein as tipifarnib) (100 nM) or rapamycin (1 μM).

[2] = C57BL/6, mouse, in vivo, po, 9 mg/kg, Group 5 (9 mg/kg SID), C57BL/6 mice, oral
[3] = C57BL/6, mouse, in vivo, po, 9 mg/kg, Group 6 (9 mg/kg BID), C57BL/6 mice, oral
[4] = C57BL/6, mouse, in vivo, po, 9 mg/kg, Group 9 (9 mg/kg Day 5), C57BL/6 mice, oral

C#Cc1cccc(-c2cc(=O)n(C)c3ccc([C@](O)(c4ccc(Cl)cc4)c4cncn4C)cc23)c1 [LNK-754-TS, (R)-6-[(4-chlorophenyl)-hydroxyl-(1-methyl-1-H-imidazol-5-yl)-methyl]-4-(3-ethynylphenyl)-1-methyl-2-(1H)-quinonlinone (2S, 3S)-dihydroxybutanedioate]
AUC ([1]; 0.9 mg/kg oral, QD day 1, 5% beta-cyclodextrin, mice): 34.6 ng·h/mL
Cmax ([1]; C57BL/6, mouse, in vivo, po, 0.09 mg/kg, 0.09 mg/kg oral, QD day 1, 5% beta-cyclodextrin, mice): 0.61 ng/mL
AUC ([1]; C57BL/6, mouse, in vivo, po, 0.09 mg/kg, 0.09 mg/kg oral, QD day 1, 5% beta-cyclodextrin, mice, read-out: AUC): 0.63 ng·h/mL
Cmax ([1]; C57BL/6, mouse, in vivo, po, 0.9 mg/kg, 0.9 mg/kg oral, QD day 1, 5% beta-cyclodextrin, mice): 31.1 ng/mL
AUC ([1]; C57BL/6, mouse, in vivo, po, 0.9 mg/kg, 0.9 mg/kg oral, QD day 1, 5% beta-cyclodextrin, mice, read-out: AUC): 34.6 ng·h/mL
AUC ([1]; C57BL/6, mouse, in vivo, po, 9 mg/kg, 9 mg/kg BID oral, mice (text summary of day 1 and day 5), read-out: AUC): 2000 to 2600 ng·h/mL
Cmax ([1]; C57BL/6, mouse, in vivo, po, 9 mg/kg, 9 mg/kg oral, BID day 1, 20% beta-cyclodextrin, mice): 1380 ng/mL
AUC ([1]; C57BL/6, mouse, in vivo, po, 9 mg/kg, 9 mg/kg oral, BID day 1, 20% beta-cyclodextrin, mice, read-out: AUC): 2100 ng·h/mL
Cmax ([1]; C57BL/6, mouse, in vivo, po, 9 mg/kg, 9 mg/kg oral, BID day 5, 20% beta-cyclodextrin, mice): 1480 ng/mL
AUC ([1]; C57BL/6, mouse, in vivo, po, 9 mg/kg, 9 mg/kg oral, BID day 5, 20% beta-cyclodextrin, mice, read-out: AUC): 2630 ng·h/mL
AUC(0-inf) [1, 2]: 752 ng·h/mL
AUC(0-t) [1, 2]: 730 ng·h/mL
Cmax [1, 2]: 318 ng/mL
half-life [1, 2]: 1.5 h
MRT inf [1, 2]: 2.38 h
AUC(0-inf) [1, 3]: 2290 ng·h/mL
AUC(0-t) [1, 3]: 2100 ng·h/mL
Cmax [1, 3]: 1390 ng/mL
half-life [1, 3]: 5.04 h
MRT inf [1, 3]: 2.67 h
AUC(0-inf) [1, 4]: 2630 ng·h/mL
AUC(0-t) [1, 4]: 2630 ng·h/mL
Cmax [1, 4]: 1490 ng/mL
half-life [1, 4]: 0.62 h
MRT inf [1, 4]: 1.43 h
Tmax ([1]; C57BL/6, mouse, in vivo, 0.09 mg/kg oral, QD day 1, 5% beta-cyclodextrin, mice): 0.5 h
Tmax ([1]; C57BL/6, mouse, in vivo, 0.9 mg/kg oral, QD day 1, 5% beta-cyclodextrin, mice): 0.5 h
Tmax ([1]; C57BL/6, mouse, in vivo, 9 mg/kg oral, BID day 1, 20% beta-cyclodextrin, mice): 1 h
Tmax ([1]; Group 5 (9 mg/kg SID), C57BL/6 mice, oral): 1 h
Tmax ([1]; Group 6 (9 mg/kg BID), C57BL/6 mice, oral): 1 h
Tmax ([1]; Group 9 (9 mg/kg Day 5), C57BL/6 mice, oral): 1 h
phosphorylated Tau (AT180) immunoreactivity in amygdala (TAU): significantly decreased; also recorded: significant reduction; also recorded: significantly reduced
total TAU (HT7) immunoreactivity (TAU): not significantly reduced; also recorded: did not change
LC3 transcript (LC3 mRNA; 0.01-100 nM, 72 hr, differentiated SH-SY5Y (FIG. 8a)): upregulated; also recorded: increased
levels of mRNA of LC3 (LC3 mRNA; between 1 and 100 nM, SH-SY5Y, 72 hours (FIG. 4)): significant increases
